Columns and labels:
Homo sapiens [1] = organism: Homo sapiens; experiment: Selectivity ratio of EC50 for human MC3R to EC50 for human MC1R
Melanocortin receptor 5 = Melanocortin receptor 5 (Homo sapiens, UniProt P33032); experiment: Agonist activity at human MC5R expressed in HEK2936E cells assessed as cAMP production in presence of IBMX by time resolved fluorescence assay; assay type: functional, cell-based
Homo sapiens [2] = organism: Homo sapiens; experiment: Selectivity ratio of Ki for human MC3R to Ki for human MC1R
Melanocortin receptor 4 [3] = biological target: T1, Melanocortin receptor 4 (Homo sapiens, UniProt P32245); experiment: Displacement of [125I]-NDP-alpha-MSH from human MC4R expressed in HEK2936E cell membrane measured after 16 to 23 hrs by 1450 microbeta trilux scintillation proximity assay; assay type: cell membranes; conditions: hek2936e
[4] = biological target: T2, Melanocyte-stimulating hormone receptor (Homo sapiens, UniProt Q01726); experiment: Displacement of [125I]-NDP-alpha-MSH from human MC1R expressed in HEK2936E cell membrane measured after 16 to 23 hrs by 1450 microbeta trilux scintillation proximity assay; assay type: cell membranes; conditions: hek2936e
Homo sapiens [5] = organism: Homo sapiens; experiment: Selectivity ratio of EC50 for human MC4R to EC50 for human MC1R
Homo sapiens [6] = organism: Homo sapiens; experiment: Selectivity ratio of Ki for human MC4R to Ki for human MC1R
Melanocortin receptor 3 [7] = biological target: T3, Melanocortin receptor 3 (Homo sapiens, UniProt P41968); experiment: Displacement of [125I]-NDP-alpha-MSH from human MC3R expressed in HEK2936E cell membrane measured after 16 to 23 hrs by 1450 microbeta trilux scintillation proximity assay; assay type: cell membranes; conditions: hek2936e
Melanocortin receptor 3 [8] = biological target: T3, Melanocortin receptor 3; experiment: Agonist activity at human MC3R expressed in HEK2936E cells assessed as cAMP production in presence of IBMX by time resolved fluorescence assay; assay type: functional, cell-based; conditions: hek2936e
[9] = biological target: T2, Melanocyte-stimulating hormone receptor; experiment: Agonist activity at human MC1R expressed in HEK2936E cells assessed as cAMP production in presence of IBMX by time resolved fluorescence assay; assay type: functional, cell-based; conditions: hek2936e
Melanocortin receptor 4 [10] = biological target: T1, Melanocortin receptor 4; experiment: Agonist activity at human MC4R expressed in HEK2936E cells assessed as cAMP production in presence of IBMX by time resolved fluorescence assay; assay type: functional, cell-based; conditions: hek2936e

T3 sequence (P41968 whole entry): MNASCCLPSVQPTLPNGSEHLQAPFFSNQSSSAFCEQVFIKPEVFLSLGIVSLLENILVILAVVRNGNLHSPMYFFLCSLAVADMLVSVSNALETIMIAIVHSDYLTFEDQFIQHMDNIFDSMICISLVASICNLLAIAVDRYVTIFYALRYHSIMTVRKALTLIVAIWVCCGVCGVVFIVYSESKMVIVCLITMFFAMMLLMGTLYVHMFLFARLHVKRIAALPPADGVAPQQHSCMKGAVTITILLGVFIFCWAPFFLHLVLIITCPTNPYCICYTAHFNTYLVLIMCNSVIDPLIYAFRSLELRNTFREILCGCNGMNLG
T2 sequence (Q01726 whole entry): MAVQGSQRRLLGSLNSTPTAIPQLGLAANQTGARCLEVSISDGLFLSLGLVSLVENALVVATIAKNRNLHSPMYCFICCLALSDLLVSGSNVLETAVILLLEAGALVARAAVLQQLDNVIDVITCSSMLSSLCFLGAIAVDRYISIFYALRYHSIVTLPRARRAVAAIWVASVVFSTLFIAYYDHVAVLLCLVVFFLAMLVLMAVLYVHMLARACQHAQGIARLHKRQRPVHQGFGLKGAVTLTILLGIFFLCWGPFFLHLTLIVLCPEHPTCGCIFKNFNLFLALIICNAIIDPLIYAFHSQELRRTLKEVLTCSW
T1 sequence (P32245 whole entry): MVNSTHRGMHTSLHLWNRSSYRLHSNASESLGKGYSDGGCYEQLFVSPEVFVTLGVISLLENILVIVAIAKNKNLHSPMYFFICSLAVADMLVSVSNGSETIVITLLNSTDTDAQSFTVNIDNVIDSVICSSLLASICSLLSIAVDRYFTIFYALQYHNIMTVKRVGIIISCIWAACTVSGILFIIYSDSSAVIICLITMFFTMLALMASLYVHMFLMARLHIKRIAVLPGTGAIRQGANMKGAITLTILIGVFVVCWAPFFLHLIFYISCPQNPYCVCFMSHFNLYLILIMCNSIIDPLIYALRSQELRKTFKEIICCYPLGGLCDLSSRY
Sequence of Melanocortin receptor 5 (P33032 whole entry): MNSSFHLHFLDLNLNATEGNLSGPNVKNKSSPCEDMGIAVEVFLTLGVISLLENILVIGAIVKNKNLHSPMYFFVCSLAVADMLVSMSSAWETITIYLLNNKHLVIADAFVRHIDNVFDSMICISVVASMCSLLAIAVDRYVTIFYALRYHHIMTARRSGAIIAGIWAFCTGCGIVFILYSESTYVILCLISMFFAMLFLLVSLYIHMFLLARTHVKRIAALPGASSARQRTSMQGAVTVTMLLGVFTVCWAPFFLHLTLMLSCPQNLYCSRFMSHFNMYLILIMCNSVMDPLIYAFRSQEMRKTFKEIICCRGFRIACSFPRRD

Row | Compound | Ratio EC50 (Homo sapiens [1]) | pEC50 (Melanocortin receptor 5) | Ratio Ki (Homo sapiens [2]) | pKi (Melanocortin receptor 4 [3]) | pKi [4] | Ratio EC50 (Homo sapiens [5]) | Ratio Ki (Homo sapiens [6]) | pKi (Melanocortin receptor 3 [7]) | pEC50 (Melanocortin receptor 3 [8]) | pEC50 [9] | pEC50 (Melanocortin receptor 4 [10])
1 | CC[C@H](C)[C@@H]1NC(=O)[C@@H]2CCCN2C(=O)[C@H](Cc2c[nH]c3ccccc23)NC(=O)[C@H](CCCNC(=N)N)N(C)C(=O)[C@H](Cc2ccccc2)NC(=O)[C@H](Cc2cnc[nH]2)NC(=O)[C@H]([C@@H](C)O)NC(=O)[C@H](NC(C)=O)CCSCc2ccccc2CSCC[C@H](C(N)=O)NC1=O | 214 | 4.82 | 191 | 5.93 | 7.16 | 85 | 17 | 4.88 | 6.34 | 8.67 | 6.74
2 | CC[C@H](C)[C@@H]1NC(=O)[C@@H]2CCCN2C(=O)[C@H](Cc2c[nH]c3ccccc23)NC(=O)[C@H](CCCNC(=N)N)N(C)C(=O)[C@H](Cc2ccccc2)NC(=O)[C@H](Cc2cnc[nH]2)NC(=O)[C@H]([C@@H](C)O)NC(=O)[C@H](NC(C)=O)CCSCc2cccc(c2)CSCC[C@H](C(N)=O)NC1=O | 219 | 4.78 | 170 | 6.34 | 7.31 | 110 | 9 | 5.08 | 6.42 | 8.79 | 6.72

Source: ChEMBL document CHEMBL5104192, “Late-Stage Functionalization with Cysteine Staples Generates Potent and Selective Melanocortin Receptor-1 Agonists” (J Med Chem, 2022)
